Experimental data reported in PMC6942214 (Bioorganic & medicinal chemistry letters, 2019).

Experiments:
EU-1 ALL = assay: WST cytotoxicity assay in EU-1 leukemia cells; format: cell-based; conditions: read-out: IC50 (μM) EU-1 ALL
MDM2 [1] = biological target: T1, MDM2 (Homo sapiens, UniProt Q00987); conditions: EU-1 ALL cells; cited from earlier work
p53 [2] = conditions: EU-1 ALL cells, dose- and time-dependent; cited from earlier work
normal cells = conditions: at therapeutic concentration, preliminary results; cited from earlier work
MDM2 [3] = biological target: T1, MDM2; assay: Western blot of MDM2 in EU-1 cells; format: cell-based
p53 [4] = assay: Western blot of p53 in EU-1 cells; format: cell-based
[5] = system: cell lysate of EU-1 leukemia cells; assay: Prodrug activation in non-denatured EU-1 cell lysate; format: in vitro ADME
[6] = Water solubility by an HPLC method; format: physicochemical; conditions: ratio of water solubilities

T1 sequence (Q00987 whole entry): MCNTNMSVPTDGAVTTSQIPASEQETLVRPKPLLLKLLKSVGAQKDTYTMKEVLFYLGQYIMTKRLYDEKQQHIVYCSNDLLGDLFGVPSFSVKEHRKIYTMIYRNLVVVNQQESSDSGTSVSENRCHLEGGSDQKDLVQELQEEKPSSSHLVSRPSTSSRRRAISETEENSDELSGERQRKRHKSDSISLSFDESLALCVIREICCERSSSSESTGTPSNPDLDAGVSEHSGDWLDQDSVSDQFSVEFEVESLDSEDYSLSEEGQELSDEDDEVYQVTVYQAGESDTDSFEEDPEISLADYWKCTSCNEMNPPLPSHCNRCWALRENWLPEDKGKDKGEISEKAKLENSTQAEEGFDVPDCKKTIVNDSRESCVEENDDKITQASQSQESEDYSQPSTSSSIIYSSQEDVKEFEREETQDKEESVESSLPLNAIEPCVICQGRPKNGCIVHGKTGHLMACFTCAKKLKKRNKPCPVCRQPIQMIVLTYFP

O=C(CCl)Nc1cc(O)c2c(c1)C(=O)c1cccc(O)c1C2=O [BW-AQ-101]
IC50 (EU-1 ALL): 0.83 µM | effect on MDM2 (MDM2 [1]): inhibited MDM2 | effect on p53 (p53 [2]): induced activation of p53 | toxicity to normal cells (normal cells): minimal or no toxicity

O=C(CCl)Nc1cc(OCCO)c2c(c1)C(=O)c1cccc(OCCO)c1C2=O [BW-AQ-238]
cytoplasmic MDM2 level (Western blot) (MDM2 [3]; 0.8 μM, 15-h time point): significantly down-regulated | MDM2 level, time course (Western blot) (MDM2 [3]; 1 μM): Down-regulation of MDM2 could be detected after 4-h treatment | p53 level (Western blot) (p53 [4]; 0.8 μM, 15-h time point): increased | p53 level, time course (Western blot) (p53 [4]; 1 μM): elevated after 4 hours of treatment

CC(C)[C@H](N)C(=O)OCCOc1cccc2c1C(=O)c1c(OCCOC(=O)[C@@H](N)C(C)C)cc(NC(=O)CCl)cc1C2=O.Cl [Compound 9c]
time within which the ester bond was cleaved to give parent drug [5]: ≤ 15 min

Cl.N[C@@H](Cc1ccccc1)C(=O)OCCOc1cccc2c1C(=O)c1c(OCCOC(=O)[C@@H](N)Cc3ccccc3)cc(NC(=O)CCl)cc1C2=O [Compound 9f]
fold greater solubility than parent drug BW-AQ-238 [6]: over 11000 fold
